Data: patent US9175282B2, “Cellobiose 2-epimerase, its preparation and uses” (HAYASHIBARA CO., LTD., priority 2009, dated 2015)
Where two headings read alike, the source gives them in different places.

Test system: cellobiose 2-epimerase
Experiment: Effect of metal ions on the epimerase activity
Format: biochemical, Caldicellusiruptor saccharolyticus ATCC43494
Settings: for Inhibition of the epimerase activity by metal ion: 1 mM

NC(CO)(CO)CO [Tris]
Relative activity (%) (metal salt 1 mM, None = 100): 93%

[Cl-].[Cl-].[Co+2] [CoCl2]
Relative activity (%): 101%

[Cl][Fe][Cl] [FeCl2]
Relative activity (%) (metal salt 1 mM, None = 100): 35%

[Cl][Fe]([Cl])[Cl] [FeCl3]
Relative activity (%) (metal salt 1 mM, None = 100): 33%

[Cl][Hg][Cl] [HgCl2]
Inhibition of the epimerase activity by metal ion: almost completely inhibited | Relative activity (%) (metal salt 1 mM, None = 100): 1%

[Cl][Al]([Cl])[Cl] [AlCl3]
Inhibition of the epimerase activity by metal ion: inhibited | Relative activity (%) (metal salt 1 mM, None = 100): 45%

[Cl][Cu][Cl] [CuCl2]
Inhibition of the epimerase activity by metal ion: almost completely inhibited | Relative activity (%) (metal salt 1 mM, None = 100): 1%

[Ba+2].[Cl-].[Cl-] [BaCl2]
Relative activity (%) (metal salt 1 mM, None = 100): 108%

[Cl][Pb][Cl] [PbCl2]
Inhibition of the epimerase activity by metal ion: inhibited | Relative activity (%) (metal salt 1 mM, None = 100): 36%

[Cl][Ni][Cl] [NiCl2]
Relative activity (%) (metal salt 1 mM, None = 100): 103%

[Cl-].[Cl-].[Mg+2] [MgCl2]
Relative activity (%) (metal salt 1 mM, None = 100): 106%

O=C(O)CN(CCN(CC(=O)O)CC(=O)O)CC(=O)O [EDTA]
Relative activity (%) (metal salt 1 mM, None = 100): 99%

[Cl-].[Cl-].[Zn+2] [ZnCl2]
Inhibition of the epimerase activity by metal ion: almost completely inhibited | Relative activity (%) (metal salt 1 mM, None = 100): 1%

[Cl][Mn][Cl] [MnCl2]
Relative activity (%) (metal salt 1 mM, None = 100): 104%

[Cl-].[Cl-].[Sr+2] [SrCl2]
Relative activity (%) (metal salt 1 mM, None = 100): 104%

[Ca+2].[Cl-].[Cl-] [CaCl2]
Relative activity (%) (metal salt 1 mM, None = 100): 107%
